Counter-ions that a name gives are not always drawn. Blank lines part the entries; values can stand above or below the compound they belong to.
Legend:
[1] = test system: Fusarium oxysporum f. sp. cubense; assay: in vitro 96-well microtiter plate assay, visible mould development; assay type: cell-based; conditions: substance alone
[2] = test system: Saccharomyces cerevisiae; assay: filter disc inhibition zone on PDA Petri dishes (145 mm), Example 2; assay type: cell-based; conditions: after 16 h
Experimental: Saccharomyces cerevisiae (at least 10^5 cfu/ml) was distributed on Petri dishes with a diameter of 145 mm containing 30 ml Potato Dextrose Agar (PDA; Carl Roth; pH of about 6) using sterilized swabs. […] As controls, the effects of the fatty acid salts alone (without natamycin) were tested. Yeast growth was also measured after incubation on medium without natamycin and fatty acid salts. Following the application of a filter, Petri dishes were incubated upside down for 24 h in a refrigerator at 4° C. to allow diffusion of natamycin into the agar. After 24 h the filter discs were removed from the agar and the Petri dishes were incubated upside down in a stove at 30° C. […] After 16 h incubation in the stove the size of the inhibition zone was determined using a digital caliper gauge. The data are presented as square mm and are an average of four replicas.

[3] = test system: Saccharomyces cerevisiae; assay: filter disc inhibition zone on Petri dishes (90 mm), Example 3; assay type: cell-based; conditions: for surface of inhibition zone: 90 mm dish, after 16 h
Experimental: Saccharomyces cerevisiae (at least 10^5 cfu/ml) was distributed on Petri dishes with a diameter of 145 mm containing 30 ml Potato Dextrose Agar (PDA; Carl Roth; pH of about 6) using sterilized swabs. Filter paper discs (Whatman, Antibiotic Assay Paper, grade AA) with a diameter of 6 mm were loaded with 40 μl of a solution of 3 mM natamycin (Chinonbio, China, 95%) plus 0, 0.03, 0.09, 0.3 or 0.9 mM of sodium salts of butanoic acid (Carl Roth >99%), caprylic acid (Carl Roth, >99.5%), palmitic acid (Sigma, sodium palmitate 98.5) or stearic acid (Carl Roth, sodium stearate 88-92%). As controls, the effects of the fatty acid salts alone (without natamycin) were tested. Yeast growth was also measured after incubation on medium without natamycin and fatty acid salts.
Following the application of a filter, Petri dishes were incubated upside down for 24 h in a refrigerator at 4° C. to allow diffusion of natamycin into the agar. After 24 h the filter discs were removed from the agar and the Petri dishes were incubated upside down in a stove at 30° C. […] After 16 h incubation in the stove the size of the inhibition zone was determined using a digital caliper gauge. The data are presented as square mm and are an average of four replicas.
The experiment was performed as described in example 2, except that the diameter of the petri dishes was 90 mm. Measurement of the inhibition zone was after 16 hours.

[4] = test system: Saccharomyces cerevisiae; assay: filter disc inhibition zone on PDA Petri dishes (90 mm, 50 μL), Example 4; assay type: cell-based; conditions: 3 mM natamycin alone; after 16 h
Experimental: Saccharomyces cerevisiae (at least 10^5 cfu/mL) was distributed on Petri dishes with a diameter of 90 mm containing 10 ml PDA agar (Carl Roth, pH about 6) using sterilized swabs. Filter paper discs (Whatman) with a diameter of 6 mm were loaded with 50 μL of a solution containing a concentration of 3 mM natamycin plus 0.3 mM of a mixture of oleic acid sodium salt and stearic acid sodium salt in a 50/50 ratio (this mixture will be referred to as fatty acid mix). As controls, the effect of the fatty acid mix alone (without natamycin) was tested on yeast growth. Yeast growth was also determined after incubation on medium without both natamycin and fatty acid salts. The size of the inhibition zone is a result of the natamycin and/or fatty acid salts released from the sample disc. After 16 h of incubation in the stove the size of the inhibition zone was measured using a digital caliper gauge. The data are presented as square mm and are an average of four replicas.

[5] = test system: Botrytis cinerea; assay: rot on wounded apples inoculated with Botrytis cinerea; assay type: in vivo; conditions: 3 mM natamycin; for Lesion area on apple fruits: 0 FA; for Antifungal activity (%): apple fruits
Text: Tested fruit: apples cv Maribelle from organic origin/SKAL certified. SKAL is a semi-governmental Dutch organization that controls organic production in the Netherlands. Wounds of the apples were checked at day 5 and 7. A mixture of fatty acid sodium salts containing oleic acid sodium salt and stearic acid sodium salt in a 50/50 ratio was used in this experiment and will be referred to as fatty acid mix. Used pathogen: Botrytis cinerea spore-suspension containing 10^6 spores/ml. Application: The fruit peel of the apple was damaged with a cork borer, ø 4 mm and depth ˜0.5 cm into the fruit, with 2 wounds per apple. 40 microliter of a freshly prepared spore suspension of B. cinerea was applied by pipette onto each wound. Subsequently, the spore-suspension was allowed to air-dry for 4 hours. Then, 40 microliter of a treatment as presented in the list above was applied by pipette to each wound. All fruits were kept at room temperature (20° C.). Wounds of the apples were checked after 4 and 7 days of incubation. […] Replicates: All treatments for the apple experiment were performed on six individual apples with two wounds each resulting in 12 wounds per treatment.

[6] = saturation level of natamycin in water by HPLC; assay type: physicochemical
[7] = solubility of natamycin in aqueous composition (description); assay type: physicochemical; conditions: presence of fatty acids, monoglycerides and/or derivatives; pH between 5 and 9
[8] = 0.03 mM fatty acid salt without natamycin
[9] = 0.09 mM fatty acid salt without natamycin
[10] = 0.3 mM fatty acid salt without natamycin
[11] = 0.9 mM fatty acid salt without natamycin

Dissolved natamycin in water ([6]; ratio natamycin:salts of oleic and stearic acid mix 1:0 (g:g), room temperature): 46 mg/L | level dissolved in water ([6]; without addition of fatty acids): about 46 ppm | solubility of natamycin [7]: increased
SMILES: C[C@@H]1C/C=C/C=C/C=C/C=C/[C@H](O[C@@H]2O[C@H](C)[C@@H](O)[C@H](N)[C@@H]2O)C[C@@H]2O[C@](O)(C[C@@H](O)C[C@H]3O[C@@H]3/C=C/C(=O)O1)C[C@H](O)[C@H]2C(=O)O [Natamycin, natamycin]
sensitivity of Fusarium oxysporum [1]: > 7 µM | surface of inhibition zone ([2]; 3 mM natamycin, 0 mM fatty acid salt, 40 μl per disc): 585 square mm | surface of inhibition zone ([3]; 3 mM natamycin, 0 mM caprylic acid salt): 788 square mm | Inhibition zone [4]: 480 square mm | Lesion area on apple fruits ([5]; 5 days after inoculation): 130 mm^2 | Lesion area on apple fruits ([5]; 7 days after inoculation): 308 mm^2 | Antifungal activity (%) ([5]; incubation 5 days): 62% | Antifungal activity (%) ([5]; incubation 7 days): 50%

SMILES: CCCCCCCCCCCCCCCC(=O)[O-].[Na+] [palmitic acid-Na, sodium palmitate]
surface of inhibition zone [2, 8]: 0 square mm | surface of inhibition zone [2, 9]: 0 square mm | surface of inhibition zone [2, 10]: 0 square mm | surface of inhibition zone [2, 11]: 0 square mm

SMILES: CCCCCCCC(=O)O [caprylic acid-Na, caprylic acid]
surface of inhibition zone [2, 8]: 0 square mm | surface of inhibition zone [2, 9]: 0 square mm | surface of inhibition zone [2, 10]: 0 square mm | surface of inhibition zone [2, 11]: 0 square mm

SMILES: CCCCCCCCCCCCCCCCCC(=O)[O-].[Na+] [stearic acid-Na, sodium stearate]
surface of inhibition zone [2, 8]: 0 square mm | surface of inhibition zone [2, 9]: 0 square mm | surface of inhibition zone [2, 10]: 0 square mm | surface of inhibition zone [2, 11]: 0 square mm

SMILES: CCCC(=O)O [butanoic acid-Na, butanoic acid]
surface of inhibition zone [2, 8]: 0 square mm | surface of inhibition zone [2, 9]: 0 square mm | surface of inhibition zone [2, 10]: 0 square mm | surface of inhibition zone [2, 11]: 0 square mm

SMILES: CCCCCCCC(=O)O [caprylic acid ammonium salt, caprylic acid]
effect on natamycin-inhibited yeast growth ([3]; caprylic acid salt 0.09, 0.3 and 0.9 mM with natamycin): enhanced | inhibition of growth of yeast by the salts themselves ([3]; without natamycin): did not inhibit

SMILES: CCCCCCCC(=O)O [caprylic acid potassium salt, caprylic acid]
surface of inhibition zone ([3]; 0.03 mM caprylic acid salt without natamycin): 0 square mm | surface of inhibition zone ([3]; 0.09 mM caprylic acid salt without natamycin): 0 square mm | surface of inhibition zone ([3]; 0.3 mM caprylic acid salt without natamycin): 0 square mm | surface of inhibition zone ([3]; 0.9 mM caprylic acid salt without natamycin): 0 square mm

— patent US20190357538A1, “An Antifungal Composition Comprising Natamycin and C4-C22 Fatty Acids, Monoglycerides of These Fatty Acids and/or Derivatives of These Fatty Acids” (Arec Crop Protection B.V., priority 2015, published 2019)
